Laboratory results as given in US20230303486A1, “CYCLOBUTYL-UREA DERIVATIVES” (Idorsia Pharmaceuticals Ltd, priority 2020, published 2023).

What was measured:
[1] = target: T1, Kv7.2/7.3 (human KCNQ2 and KCNQ3 genes) in HEK293 cells (Homo sapiens, UniProt O43525+O43526); assay: Kv7.2/3 assay (FLIPR potassium assay, agonist mode); type: cell-based; settings: Kv7.2/7.3 activation, responses relative to Flupirtine
T1 construct: host or cells: HEK293
Description: HEK293 cells were stably transfected with the appropriate ion channel cDNA(s) (human KCNQ2 and KCNQ3 genes). Cells were cultured in Dulbecco’s Modified Eagle Medium /Nutrient mixture F-12 (D-MEM/F-12) supplemented with 10% fetal bovine serum, 100 U/mL penicillin G sodium, 100 µg/mL streptomycin sulfate and selection antibiotics. FLIPR Test Procedure: For FLIPR assay, cells were plated in 384-well black clear-bottomed microtiter plates (BD Biocoat Poly-D-Lysine Multiwell Cell Culture Plate) at 15′000 to 30′000 cells per well. Cells were incubated at 37° C. overnight or until cells reached sufficient density in the wells (near confluent monolayer) to use in fluorescence assays. […] Assays were performed with the FLIPR potassium assay kit (Molecular Devices) according to the manufacturer’s instructions. Dye-loading: Growth media was removed and replaced with 20 µL of dye loading buffer for 60 min at room temperature. FLIPR Recording (agonist mode): Stock solutions of test compounds were prepared at a concentration of 33.3 mM in DMSO. 5 µL of 5x concentrated test, vehicle, or control compounds solutions prepared in the stimulation buffer (K^+-free buffer with 5 mM TI^+) were added to each well and fluorescence recording was continued for 5 min. The agonist effect (EC50 and % effect) of test or control compounds on Kv7 channels was determined as follows: Raw data was exported using Screenworks® 4.2 software and the fluorescence traces were analysed using Microsoft Excel (Microsoft Corp., Redmond, WA). The test compounds responses were expressed as % of maximum response of the control compound Flupirtine (Sigma-Aldrich), which was tested at concentrations ranging from 0.03 to 100 µM. Concentration-response data were fitted to a Hill equation. Non-linear least squares fits were made assuming a simple binding model. If appropriate, fits were weighted by the standard deviation. No assumptions about the fit parameters were made; the fit parameters were determined by the algorithm.

[2] = system: audiogenic generalized convulsive seizures in DBA/2J mice; assay: Audiogenic seizure-sensitive mouse model of generalized convulsive seizures; type: in vivo; settings: 10 mg/kg po, challenge 1h
Description: (§1) Compounds were formulated in a 10% polyethylene glycol 400 (PEG 400) / 90% aqueous solution of 0.5 % methylcellulose (MC 0.5%). Firstly drugs are dissolved in PEG 400 and then suspended in MC 0.5 % for oral gavage at Xmg/5 mL/kg (X see table).
• 1. Procedure: Following two days of acclimatisation, auditory seizures are induced in male juvenile DBA/2J mice (22-24 days old; Janvier Labs, France). Each mouse is placed individually in the exposure chamber, an hemispheric acrylic glass dome (diameter: 50 cm) within a sound-attenuated box. The soundattenuated box is equipped with two house lights and a camera system (Fire-I from Unibrain) in order to observe and record the behavioral seizure response. After 60 seconds of habituation, the stimulus, a mixed frequency tone of 15-20 kHz at 110 dB (SASLab Lite, Avisoft Bioacoustics), is played from a speaker that is placed on the top center of the dome. […] Seizures are classified as following: stage 0, normal behavior; stage 1, wild running; stage 2, generalized clonus; stage 3, tonic extension of the hind limbs. • 2. Compounds testing: Acute compound effects on audiogenic generalized convulsive seizures are evaluated in independent groups of 8-10 mice randomly assigned. Following oral administration of compound or vehicle, the maximum seizure stage during sound exposure is assessed. Compounds are given 1 hour before exposure to the stimulus. Each mouse is exposed to the auditory stimulus only once and euthanized afterwards by CO2 inhalation.

[3] = system: fully kindled Wistar rats; assay: Amygdala-kindling rat model; type: in vivo; settings: challenge 1 h
Description: as §1
• 1. Procedure: Adult male Wistar rats (Harlan Laboratories, Netherlands, or Charles Rivers, Germany; body weight 300-350 g) were stereotaxically implanted with twisted bipolar plastic-coated stainless steel electrode (MS333-2-BIU 10 mm, Plastics One) into the right basolateral amygdala under isoflurane anesthesia. To place the electrode, trepanations were made in the skull and the electrode was lowered into the right basolateral amygdala (from bregma: anteriorposterior (AP): -2.5 mm, medio-lateral (ML): -3.5 mm, dorso-ventral (DV): -8.6 mm; α=10^0) and secured to the skull with screws and dental acrylate. After one week of recovery, they were handled daily and habituated over one week to the kindling setup. Kindling procedure: For a kindling session each rat was placed individually into a smooth acrylic plastic, round-bottomed bowl (0 36 cm, height 36 cm, BASi movement-responsive caging system) and its intracranial implanted electrode was connected to the stimulator (STG4008, Multichannel Systems GmbH) and the recording devices (PowerLab 8/35, ADInstruments Ltd) via a cable (335-340/3 (C), Plastics One). For the kindling procedure, each rat was exposed once daily to an electrical stimulation and the behavioral symptoms of the evoked seizure were observed and classified according to the modified Racine scale (stage 0, arrest, wet dog shakes, normal behaviour; stage 1, facial twitches: nose, lips, eyes; stage 2, chewing, head nodding; stage 3, forelimb clonus; stage 4, rearing, falling on forelimbs; stage 5, rearing, falling on side or back, rolling). […] The duration of electroencephalographic seizures (afterdischarge, AD) was recorded using LabChart7 Pro software (ADInstruments Ltd). Simultaneously, videos were recorded to evaluate seizure stage (SS). • 2. Compound testing: Acute drug effects were evaluated in groups of 6-8 fully kindled rats in a randomized cross-over design with 48h between drug and vehicle applications. Following oral administration of drug or vehicle, drug testing included determination of the afterdischarge threshold (the minimal stimulation intensity necessary to evoke an afterdischarge (electroencephalographically measured neuronal hyper-synchronous activity with an amplitude 2-times higher than baseline amplitude and a frequency of […]) of at least 3 sec duration) and monitoring electroencephalographic and behavioral correlates of the evoked seizure at ADT (afterdischarge threshold), including AD duration and SS, by a experimenter blind to treatment assignment.

SMILES | EC50 [1] [nM] | Seizure stage [% vs. vehicle] [2] [% vs. vehicle] | AD duration [% vs veh] ([3]; 30 mg/kg po) | Seizure stage [% vs veh] ([3]; 30 mg/kg po) | AD duration [% vs veh] ([3]; 10 mg/kg po) | Seizure stage [% vs veh] ([3]; 10 mg/kg po)
O=C(NCc1cccc(C(F)(F)F)c1)NC1CC(C(F)F)C1 (single isomer, unassigned) [Example 53, 1-(3-(Difluoromethyl)Cyclobutyl)-3-(3-(Trifluoromethyl)Benzyl)Urea] | 82 | -78 | -93 | -81 |  | 
O=C(NCc1cccc(C(F)(F)F)c1)NC12CC(C(F)F)(C1)C2 [Example 47, 1-(3-Difluoromethyl-Bicyclo[1.1.1]Pent-1-yl)-3-(3-Trifluoromethyl-Benzyl)-Urea] | 59 | -92 |  |  | -85 | -70
